Reference: the supplement of paper PMC6045584
± gives the standard deviation of the averaged measurements.

Columns and labels:
[1] = compound: CO[C@H]1C[C@@H]2CC[C@@H](C)[C@@](O)(O2)C(=O)C(=O)N2CCCC[C@H]2C(=O)O[C@H]([C@H](C)C[C@@H]2CC[C@@H](OCCO)[C@H](OC)C2)CC(=O)[C@H](C)/C=C(\C)[C@@H](O)[C@@H](OC)C(=O)[C@H](C)C[C@H](C)/C=C/C=C/C=C/1C [EVEROLIMUS]; test: surviving fraction relative to DMSO-only wells; higher = less growth inhibition; settings: exposure time: 5 days
Method in brief: (§1)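 Lines were retained only if, across three screens, replicate Pearson r was >0.7 and median Z' was >0.3. Viability was measured as CellTiter-Glo luminescence and reported as surviving fraction relative to the median of DMSO-only wells. Readings followed 10 minutes at room temperature, after log-phase tumour cells seeded at 250–500 per well in 384-well plates had been exposed, from 24 hours after seeding, continuously for five days to inhibitors at 0.5, 1, 5, 10, 50, 100, 500 and 1000 nM.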

[2] = compound: O=C(O)CC[C@H]1CC[C@@](c2cc(F)ccc2F)(S(=O)(=O)c2ccc(Cl)cc2)CC1 [MK0752]; test: as above; settings: exposure time: 5 days
Method in brief: as §1

Row | Test System | surviving fraction ([1]; 0.5 nM) | surviving fraction ([1]; 1 nM) | surviving fraction ([1]; 5 nM) | surviving fraction ([1]; 10 nM) | surviving fraction ([1]; 50 nM) | surviving fraction ([1]; 100 nM) | surviving fraction ([1]; 500 nM) | surviving fraction ([1]; 1000 nM) | surviving fraction ([2]; 0.5 nM) | surviving fraction ([2]; 1 nM) | surviving fraction ([2]; 5 nM) | surviving fraction ([2]; 10 nM) | surviving fraction ([2]; 50 nM) | surviving fraction ([2]; 100 nM) | surviving fraction ([2]; 500 nM) | surviving fraction ([2]; 1000 nM)
1 | MCF7 BREAST | 0.673 ± 0.049 | 0.597 ± 0.058 | 0.502 ± 0.046 | 0.495 ± 0.024 | 0.527 ± 0.011 | 0.505 ± 0.012 | 0.504 ± 0.021 | 0.514 ± 0.024 | 0.922 ± 0.075 | 0.916 ± 0.04 | 0.916 ± 0.0061 | 0.905 ± 0.076 | 0.976 ± 0.051 | 0.913 ± 0.07 | 0.964 ± 0.067 | 0.94 ± 0.029
2 | MDAMB134 BREAST | 0.843 | 0.789 ± 0.071 | 0.63 ± 0.069 | 0.642 ± 0.11 | 0.616 ± 0.1 | 0.688 ± 0.11 | 0.569 ± 0.11 | 0.573 ± 0.09 | 1.08 ± 0.067 | 1.14 ± 0.093 | 0.96 ± 0.16 | 1.16 ± 0.079 | 0.922 ± 0.035 | 1.09 ± 0.14 | 1 ± 0.063 | 0.934 ± 0.014
3 | MDAMB157 BREAST | 0.696 ± 0.11 | 0.817 ± 0.043 | 0.747 ± 0.05 | 0.692 ± 0.011 | 0.634 ± 0.05 | 0.712 ± 0.052 | 0.598 ± 0.041 | 0.572 ± 0.095 | 0.881 ± 0.054 | 0.981 ± 0.045 | 0.969 ± 0.14 | 1.05 ± 0.022 | 1.11 ± 0.16 | 1.02 ± 0.15 | 0.971 ± 0.07 | 0.962 ± 0.065
4 | MDAMB231 BREAST | 0.779 ± 0.021 | 0.73 ± 0.028 | 0.621 ± 0.029 | 0.5901 ± 0.005 | 0.591 ± 0.022 | 0.575 ± 0.019 | 0.541 ± 0.038 | 0.521 ± 0.038 | 0.984 ± 0.033 | 0.993 ± 0.015 | 1.02 ± 0.019 | 1.01 ± 0.02 | 1.01 ± 0.013 | 1.01 ± 0.018 | 0.9137 ± 0.0079 | 0.877 ± 0.01
5 | MDAMB361 BREAST | 0.739 ± 0.061 | 0.815 ± 0.098 | 0.697 ± 0.0076 | 0.631 ± 0.049 | 0.62 ± 0.028 | 0.584 ± 0.0067 | 0.547 ± 0.015 | 0.543 ± 0.039 | 0.833 ± 0.044 | 0.904 ± 0.077 | 0.873 ± 0.044 | 0.851 ± 0.084 | 0.893 ± 0.06 | 0.91 ± 0.064 | 0.884 ± 0.056 | 0.825 ± 0.073
6 | MDAMB436 BREAST | 0.7 ± 0.022 | 0.655 ± 0.044 | 0.598 ± 0.027 | 0.606 ± 0.039 | 0.577 ± 0.025 | 0.589 ± 0.046 | 0.633 ± 0.057 | 0.558 ± 0.061 | 0.928 ± 0.052 | 0.895 ± 0.12 | 0.885 ± 0.051 | 0.901 ± 0.097 | 1.02 ± 0.13 | 0.881 ± 0.08 | 0.897 ± 0.062 | 0.856 ± 0.036
7 | MDAMB453 BREAST | 0.941 ± 0.11 | 0.75 ± 0.07 | 0.461 ± 0.0079 | 0.369 ± 0.037 | 0.339 ± 0.035 | 0.305 ± 0.018 | 0.301 ± 0.024 | 0.284 ± 0.011 | 1.04 ± 0.078 | 1.06 ± 0.052 | 1.1 ± 0.023 | 1.09 ± 0.051 | 1.08 ± 0.049 | 1.14 ± 0.034 | 1.01 ± 0.029 | 1.07 ± 0.043
8 | MDAMB468 BREAST | 0.759 ± 0.076 | 0.669 ± 0.043 | 0.599 ± 0.031 | 0.546 ± 0.045 | 0.55 ± 0.017 | 0.601 ± 0.0052 | 0.551 ± 0.044 | 0.522 ± 0.066 | 1.03 ± 0.085 | 1.01 ± 0.074 | 1.1 ± 0.035 | 1.07 ± 0.07 | 1.17 ± 0.023 | 1.17 ± 0.028 | 1.07 ± 0.035 | 1.1 ± 0.035
9 | MFM223 BREAST | 0.953 ± 0.069 | 0.912 ± 0.077 | 0.73 ± 0.049 | 0.749 ± 0.082 | 0.669 ± 0.053 | 0.638 ± 0.068 | 0.706 ± 0.076 | 0.754 ± 0.053 | 1.21 ± 0.047 | 1.14 ± 0.13 | 1.16 ± 0.048 | 1.155 ± 0.0068 | 1.19 ± 0.03 | 1.23 ± 0.016 | 1.19 ± 0.1 | 1.19 ± 0.067
10 | MG63 BONE | 0.954 ± 0.019 | 0.8723 ± 0.0081 | 0.747 ± 0.027 | 0.6393 ± 0.0057 | 0.594 ± 0.026 | 0.57 ± 0.02 | 0.481 ± 0.021 | 0.4813 ± 0.0035 | 1.07 ± 0.047 | 1.07 ± 0.033 | 1.11 ± 0.037 | 1.08 ± 0.022 | 1.13 ± 0.055 | 1.1 ± 0.029 | 0.987 ± 0.029 | 0.955 ± 0.02
